Laboratory results as given in patent US12029751B2, “Therapeutic agent for nervous system disease” (OSAKA UNIVERSITY, priority 2017, dated 2024).

Columns and labels:
[1] = test system: rat spinal cord injury model; test: Thermal algesimetry test in rat spinal cord injury model; format: in vivo; conditions: for Thermal algesimetry test, Time after spying infrared thermal stimulation: right sole
Protocol: Six-week-old female Wistar rats were used. The rats were purchased from Charles River Laboratories Japan, Inc. (Yokohama, Japan). Anesthesia was performed as follows. A 1:10 dilution of a mixture of three anesthetic agents in physiological saline was administered by intraperitoneal injection. One dose consisted of 0.2 mg/kg of midazolam, 0.015 mg/kg of medetomidine, and 0.25 mg/kg of butorphanol. The rat was placed in a prone position on an operating table, and a dorsal midline incision was made. The T10 vertebral arch was removed to expose the posterior face of the spinal cord, and the left spinal cord was hemisected using a sharp-pointed surgical scalpel (spitz mess). The skin was sutured using a 4-0 nylon thread and the surgery was completed. A comparison was made among three groups: a methylcobalamin treatment group, an untreated group, and a sham group. Immediately after the surgical operation, an osmotic minipump filled with methylcobalamin (1 mg/kg/day) or physiological saline was placed for the methylcobalamin treatment group and the untreated group, respectively, and left in the left dorsal subcutaneous space. The sham group underwent only resection of the Th10 vertebral arch.
Each rat was separately accommodated in a dedicated cage, an infrared thermal stimulation was applied to the right sole, and time until the rat retracted the hind limb was measured. To avoid damage to the skin, the stimulation was continued for 15 seconds at the maximum. The evaluations were performed before surgery, and at 7, 14, 21, and 28 days after the surgery.

[2] = test system: cerebral cortical neurons; test: Neurite outgrowth assay (axon outgrowth promoting effect); format: cell-based, rat; conditions: for average length of axons: 72 hours after cell seeding
Excerpt: Cerebral cortical neurons were collected and cultured by a conventional method. Cerebral cortex was dissected from a fetus of a Sprague-Dawley (SD) rat (18th day of pregnancy) and recovered in ice-cooled Dulbecco's Modified Eagle Medium (DMEM) containing 10% fetal bovine serum (FBS) and 1% penicillin/streptomycin. The pia mater and blood vessels were removed, and the remaining cerebral cortex was transferred to DMEM (containing 1% penicillin/streptomycin and no FBS) and cut into small pieces having a size of 1 mm by surgical scissors. Papain (final concentration, 2 mg/ml) was added to the cell mixture, and the mixture was allowed to react at 37° C. for 30 minutes. DNase I (70 U/ml) was added to the reaction mixture and reaction was carried out for 30 seconds. Then, DMEM containing 10% FBS and 1% penicillin/streptomycin was added to terminate the reaction. The cell mixture was centrifuged at 800 rpm, the residue was re-suspended in DMEM containing 10% FBS and 1% penicillin/streptomycin, and the suspension was seeded on a dish coated with poly-L lysine (PLL). At 4 hours after the cell seeding, the medium was replaced with Neurobasal medium (containing 10% B27 supplement and 1% penicillin/streptomycin).
The cerebral cortical neurons (Example 1-1) were seeded, and the drug was added in different concentrations at 24 hours. The concentrations of methylcobalamin added were 1, 10, and 100 nM and 1, 10, and 100 μM. At 72 hours after the cell seeding, immunofluorescent staining was performed using an anti-TuJ1 antibody, and the lengths of axons (the longest neurite length per neuron) were measured. The measurement was performed on cells that were not in contact with other cells. In each evaluation, at least 30 neural axons were measured, and the mean of the obtained values was calculated and designated as a measured value.

[3] = test system: Mouse macrophage cell line J774A.1; test: Western blot of M1 markers (IL-1β, iNOS) and M2 markers (Arg1, CD206) in macrophage cell line; format: cell-based; conditions: for Arg1 protein / GAPDH protein / CD206 protein / GAPDH protein: 72 hours; for IL-1β protein / GAPDH protein / iNOS protein / GAPDH protein: 24 hours
Protocol: Mouse macrophage cell line J774A.1 (JCRB9108) was purchased from JCRB Cell Bank (Laboratory of Cell Cultures), Osaka, Japan. Cells were cultured in DMEM containing 10% FBS and 1% penicillin/streptomycin.
The J774A.1 cells (Example 5-1) were seeded on a dish having a diameter of 6 cm. After 4 days, proteins were collected using a cell lysis buffer containing a cocktail of protease inhibitors. The protein concentration was measured by BCA assay. Then, 50 μg of each sample was subjected to SDS-PAGE, and the electrophoresed proteins were transferred to a polyvinylidene difluoride membrane. The membrane was blocked with a blocking buffer for 1 hour, and then the proteins were allowed to react with primary antibodies at 4° C. overnight. The proteins were further allowed to react with a secondary antibody at room temperature for 1 hour and detected using ECL Western Blotting Detection System. To detect the M1 markers iNOS and IL-1β, lipopolysaccharide (LPS) (100 ng/ml) and methylcobalamin were added at 24 hours before collecting the proteins. To detect the M2 markers Arg1 and CD206, IL-4 (20 ng/ml) and methylcobalamin were added at 72 hours before collecting the proteins.
The primary antibodies used were a rabbit anti-IL-1β polyclonal antibody (Santa Cruz), a rabbit anti-iNOS monoclonal antibody (Abeam), a rabbit anti-Arg1 polyclonal antibody (Santa Cruz), and a rabbit anti-CD206 monoclonal antibody (Abeam). The secondary antibody used was anti-rabbit IgG, horseradish peroxidase-linked whole antibody from donkey (GE Healthcare Life Sciences).

Structure (SMILES): C/C1=C2/[N-][C@H]([C@H](CC(N)=O)[C@@]2(C)CCC(=O)NC[C@@H](C)OP(=O)([O-])O[C@H]2[C@@H](O)[C@@H](n3cnc4cc(C)c(C)cc43)O[C@@H]2CO)[C@]2(C)N=C(/C(C)=C3N=C(/C=C4N=C1[C@@H](CCC(N)=O)C\4(C)C)[C@@H](CCC(N)=O)[C@]\3(C)CC(N)=O)[C@@H](CCC(N)=O)[C@]2(C)CC(N)=O.[CH3-].[Co+3] [MeCbl, methylcobalamin]
- Thermal algesimetry test, Time after spying infrared thermal stimulation ([1]; 0 days after surgery (before surgery)): 9.99 s
- right-lower-extremity hyperesthesia (thermal algesimetry test) ([1]; 21 and 28 days after the surgery, 1 mg/kg/day osmotic minipump): significantly improved
- Thermal algesimetry test, Time after spying infrared thermal stimulation ([1]; 7 days after surgery): 8.59 s
- Thermal algesimetry test, Time after spying infrared thermal stimulation ([1]; 14 days after surgery): 8.86 s
- Thermal algesimetry test, Time after spying infrared thermal stimulation ([1]; 21 days after surgery): 9.61 s
- Thermal algesimetry test, Time after spying infrared thermal stimulation ([1]; 28 days after surgery): 9.92 s
- average length of axons ([2]; MeCbl 1 nM): 67.2 µm
- average length of axons ([2]; MeCbl 10 nM): 71.2 µm
- average length of axons ([2]; MeCbl 100 nM): 75.2 µm
- average length of axons ([2]; MeCbl 1 μM): 79.9 µm
- average length of axons ([2]; MeCbl 1 μM, listed as methylcobalamin): significantly promoted
- average length of axons ([2]; MeCbl 10 μM): 86.4 µm
- average length of axons ([2]; MeCbl 10 μM, listed as methylcobalamin): significantly promoted
- average length of axons ([2]; MeCbl 100 μM): 66.2 µm
- methylcobalamin concentration at peak of axon outgrowth promotion ([2]; concentrations 1 nM to 100 μM tested): 10 µM
- Arg1 protein / GAPDH protein ([3]; IL-4 20 ng/ml + MeCbl 1 nM): 1.42
- CD206 protein / GAPDH protein ([3]; IL-4 20 ng/ml + MeCbl 1 nM): 1.28
- Arg1 protein / GAPDH protein ([3]; IL-4 20 ng/ml + MeCbl 10 nM): 1.60
- CD206 protein / GAPDH protein ([3]; IL-4 20 ng/ml + MeCbl 10 nM): 1.49
- Arg1 protein / GAPDH protein ([3]; IL-4 20 ng/ml + MeCbl 100 nM): 1.93
- CD206 protein / GAPDH protein ([3]; IL-4 20 ng/ml + MeCbl 100 nM): 1.53
- Arg1 protein / GAPDH protein ([3]; IL-4 20 ng/ml + MeCbl 100 nM, listed as methylcobalamin): significantly increased
- Arg1 protein / GAPDH protein ([3]; IL-4 20 ng/ml + MeCbl 1 μM): 1.65
- CD206 protein / GAPDH protein ([3]; IL-4 20 ng/ml + MeCbl 1 μM): 1.58
- Arg1 protein / GAPDH protein ([3]; IL-4 20 ng/ml + MeCbl 1 μM, listed as methylcobalamin): significantly increased
- Arg1 protein / GAPDH protein ([3]; IL-4 20 ng/ml + MeCbl 10 μM): 1.26
- CD206 protein / GAPDH protein ([3]; IL-4 20 ng/ml + MeCbl 10 μM): 1.08
- Arg1 protein / GAPDH protein ([3]; IL-4 20 ng/ml + MeCbl 100 μM): 0.92
- CD206 protein / GAPDH protein ([3]; IL-4 20 ng/ml + MeCbl 100 μM): 1.12
- Arg1 protein / GAPDH protein ([3]; IL-4 20 ng/ml + MeCbl 1 mM): 0.54
- CD206 protein / GAPDH protein ([3]; IL-4 20 ng/ml + MeCbl 1 mM): 0.78
- methylcobalamin concentration at peaks of the CD206 levels ([3]; IL-4 + methylcobalamin, Western blot): 100 to 1000 nM
- IL-1β protein / GAPDH protein ([3]; LPS 100 ng/ml + MeCbl 1 nM): 0.91
- iNOS protein / GAPDH protein ([3]; LPS 100 ng/ml + MeCbl 1 nM): 0.87
- IL-1β protein / GAPDH protein ([3]; LPS 100 ng/ml + MeCbl 10 nM): 0.68
- iNOS protein / GAPDH protein ([3]; LPS 100 ng/ml + MeCbl 10 nM): 0.56
- IL-1β protein / GAPDH protein ([3]; LPS 100 ng/ml + MeCbl 100 nM): 0.46
- iNOS protein / GAPDH protein ([3]; LPS 100 ng/ml + MeCbl 100 nM): 0.15
- IL-1β protein / GAPDH protein ([3]; LPS 100 ng/ml + MeCbl 100 nM, listed as methylcobalamin): significantly decreased
- IL-1β protein / GAPDH protein ([3]; LPS 100 ng/ml + MeCbl 1 μM): 0.46
- iNOS protein / GAPDH protein ([3]; LPS 100 ng/ml + MeCbl 1 μM): 0.27
- IL-1β protein / GAPDH protein ([3]; LPS 100 ng/ml + MeCbl 10 μM): 0.60
- iNOS protein / GAPDH protein ([3]; LPS 100 ng/ml + MeCbl 10 μM): 0.33
- IL-1β protein / GAPDH protein ([3]; LPS 100 ng/ml + MeCbl 100 μM): 0.75
- iNOS protein / GAPDH protein ([3]; LPS 100 ng/ml + MeCbl 100 μM): 0.45
- IL-1β protein / GAPDH protein ([3]; LPS 100 ng/ml + MeCbl 1 mM): 1.26
- iNOS protein / GAPDH protein ([3]; LPS 100 ng/ml + MeCbl 1 mM): 0.53
- iNOS level (Western blot) as compared with LPS alone ([3]; LPS + 100 nM to 10 μM methylcobalamin): significantly decreased
